Laboratory results taken from patent publication US20230149362A1, “NEW CAPSULE COMPOSITION FOR PERORAL ADMINISTRATION” (Vicore Pharma AB, priority 2020, published 2023).
In brackets after ≈: the same amount, converted by molar mass. Where two headings read alike, the source gives them in different places.

Columns and labels:
[1] = Stability of aqueous solutions of C21 under four storage conditions (sensitivity to light); format: physicochemical; conditions: for Amount of Free C21, % of initial / Solution pH: 1 mg/mL in 0.9% NaCl
Experimental: The stability of free C21 in 0.9% NaCl pH 9.4 was investigated.
Solutions of 1 mg/mL of C21 were studied for four weeks under four different storage conditions. The solution was filtered through a 0.22 sterile syringe filter to minimize bacterial growth during the stability test. The samples were analysed by HPLC for purity.
The results are summarised in Table 3 below, in which the amount of C21 is given as a percentage of the initial amount of drug. Solution pHs were also measured and are shown within parenthesis in Table 3.
The stability of the sodium salt of C21 was also investigated under the same storage conditions.
At the time for analysis of the one week samples, it was noted that the heating cabinet for storage of samples at 40° C. was broken. In view of this, these samples were thereafter kept at room temperature for three days.

[2] = Solubility of free C21 in aqueous vehicles (saturated solutions, HPLC); format: physicochemical; conditions: for solubility at 48 h: thermodynamic from solid, read-out: Concentration (solubility)
Text: Vehicles (with sources) were as follows: sodium chloride (Sigma), ethanol (99.5%, Kemetyl), polyethylene glycols (BASF), phosphate buffered saline (PBS) pH 7.4 (Sigma), buffer solution pH 2.00 (citric acid, sodium hydroxide, hydrogen chloride), buffer solution pH 4.00 (citric acid, sodium hydroxide), buffer solution pH 6.00 (citric acid, sodium hydroxide), buffer solution pH 8.00 (boric acid, sodium hydroxide, hydrogen chloride) and buffer solution pH 10.00 (boric acid, sodium hydroxide, hydrogen chloride) (all Merck), and purified water (Elga Option 4 water purifier).
Saturated solutions of free C21 (obtained from Syntagon AB, Södertälje, Sweden) were prepared in duplicates. The samples were kept magnetically stirred for 48 hours prior to analysis. For some samples, the added substance was dissolved and more was thereafter added to obtain saturated solutions.
After 48 hours, pH was measured and thereafter 1 mL of solution was withdrawn. Undissolved substance was removed by centrifugation (1500 rpm, 30 minutes). The supernatant was diluted 10 to 500 times with acetonitrile/H2O, 30:70.
C21 content was measured by HPLC.

CCCCOC(=O)NS(=O)(=O)c1sc(CC(C)C)cc1-c1ccc(Cn2ccnc2)cc1 [free C21, N-butyloxycarbonyl-3-(4-imidazol-1-ylmethylphenyl)-5-iso-butylthiophene-2-sulfonamide]
Amount of Free C21, % of initial ([1]; 5° C., dark, 1 week): 101 % of initial | Solution pH ([1]; 5° C., dark, 1 week): (9.2) | Amount of Free C21, % of initial ([1]; 5° C., dark, 2 weeks): 107 % of initial | Solution pH ([1]; 5° C., dark, 2 weeks): (9.2) | Amount of Free C21, % of initial ([1]; 5° C., dark, 3 weeks): 108 % of initial | Solution pH ([1]; 5° C., dark, 3 weeks): (9.1) | Amount of Free C21, % of initial ([1]; 5° C., dark, 4 weeks): 108 % of initial | Solution pH ([1]; 5° C., dark, 4 weeks): (9.2) | Amount of Free C21, % of initial ([1]; 5° C., dark, Initial): 100 % of initial | Solution pH ([1]; 5° C., dark, Initial): (9.4) | Amount of Free C21, % of initial ([1]; 40° C., dark, 1 week): 101 % of initial | Solution pH ([1]; 40° C., dark, 1 week): (9.0) | Amount of Free C21, % of initial ([1]; 40° C., dark, 2 weeks): 111 % of initial | Solution pH ([1]; 40° C., dark, 2 weeks): (8.6) | Amount of Free C21, % of initial ([1]; 40° C., dark, 3 weeks): 106 % of initial | Solution pH ([1]; 40° C., dark, 3 weeks): (8.7) | Amount of Free C21, % of initial ([1]; 40° C., dark, 4 weeks): 107 % of initial | Solution pH ([1]; 40° C., dark, 4 weeks): (8.7) | Amount of Free C21, % of initial ([1]; 40° C., dark, Initial): 100 % of initial | Solution pH ([1]; 40° C., dark, Initial): (9.4) | Amount of Free C21, % of initial ([1]; RT, dark, 1 week): 97 % of initial | Solution pH ([1]; RT, dark, 1 week): (9.2) | Amount of Free C21, % of initial ([1]; RT, dark, 2 weeks): 109 % of initial | Solution pH ([1]; RT, dark, 2 weeks): (8.9) | Amount of Free C21, % of initial ([1]; RT, dark, 3 weeks): 105 % of initial | Solution pH ([1]; RT, dark, 3 weeks): (9.0) | Amount of Free C21, % of initial ([1]; RT, dark, 4 weeks): 106 % of initial | Solution pH ([1]; RT, dark, 4 weeks): (8.9) | Amount of Free C21, % of initial ([1]; RT, dark, Initial): 100 % of initial | Solution pH ([1]; RT, dark, Initial): (9.4) | Amount of Free C21, % of initial ([1]; RT, light, 1 week): 96 % of initial | Solution pH ([1]; RT, light, 1 week): (9.0) | Solution pH ([1]; RT, light, 2 weeks): (8.0) | Amount of Free C21, % of initial ([1]; RT, light, 2 weeks, precipitation, filtered): 44 % of initial | Amount of Free C21, % of initial ([1]; RT, light, 3 weeks): 96 % of initial | Solution pH ([1]; RT, light, 3 weeks): (8.5) | Solution pH ([1]; RT, light, 4 weeks): (7.7) | Amount of Free C21, % of initial ([1]; RT, light, 4 weeks, precipitation, filtered): 13 % of initial | Amount of Free C21, % of initial ([1]; RT, light, Initial): 100 % of initial | Solution pH ([1]; RT, light, Initial): (9.4) | total impurity peak area ([1]; samples stored at 5° C., RT/dark and 40° C.): around 2.5 area% of C21 peak area | chemical stability in aqueous solution ([1]; stored in dark at 5° C., RT and 40° C., four weeks): chemically stable | solubility at 48 h ([2]; 0.9% NaCl, pH 7.3, saline or isotonic, vehicle 0.9% NaCl, pH 7.3): 120 µg/mL (≈ 252 µM) | solubility at 48 h ([2]; 0.9% NaCl, pH 8.3, saline or isotonic, vehicle 0.9% NaCl, pH 8.3 adjusted by NaOH, one sample): 1580 µg/mL (≈ 3320 µM) | solubility at 48 h ([2]; 0.9% NaCl, pH 9.7, saline or isotonic, vehicle 0.9% NaCl, pH 9.7 adjusted by NaOH): 27400 µg/mL (≈ 57600 µM) | solubility at 48 h ([2]; 0.9% NaCl/EtOH 95:5 v/v, pH 7.9, aqueous with cosolvent or surfactant or cyclodextrin, vehicle 0.9% NaCl/EtOH 95:5 v/v, pH 7.9, one sample): 570 µg/mL (≈ 1200 µM) | solubility at 48 h ([2]; PBS pH 7.4, pH 7.7, aqueous buffer, vehicle Buffer/PBS pH 7.4, measured pH 7.7): 240 µg/mL (≈ 505 µM) | solubility at 48 h ([2]; PEG/EtOH/H2O (40:10:50), pH 6.1, aqueous with cosolvent or surfactant or cyclodextrin, vehicle PEG/EtOH/H2O (40:10:50), pH 6.1): 830 µg/mL (≈ 1750 µM) | solubility at 48 h ([2]; PEG/H2O (25:75), pH 5.5, aqueous with cosolvent or surfactant or cyclodextrin, vehicle PEG/H2O (25:75), pH 5.5): 170 µg/mL (≈ 357 µM) | solubility at 48 h ([2]; PEG/H2O (50:50), pH 6.2, aqueous with cosolvent or surfactant or cyclodextrin, vehicle PEG/H2O (50:50), pH 6.2): 610 µg/mL (≈ 1280 µM) | solubility at 48 h ([2]; PG/EtOH/H2O (40:10:50), pH 6.3, aqueous with cosolvent or surfactant or cyclodextrin, vehicle PG/EtOH/H2O (40:10:50), pH 6.3): 790 µg/mL (≈ 1660 µM) | solubility at 48 h ([2]; PG/H2O (10:90), pH 7.5, aqueous with cosolvent or surfactant or cyclodextrin, vehicle PG/H2O (10:90), pH 7.5): 220 µg/mL (≈ 463 µM) | solubility at 48 h ([2]; PG/H2O (25:75), pH 6.9, aqueous with cosolvent or surfactant or cyclodextrin, vehicle PG/H2O (25:75), pH 6.9): 300 µg/mL (≈ 631 µM) | solubility at 48 h ([2]; boric acid buffer pH 8.0, pH 7.9, aqueous buffer, vehicle Buffer/Boric acid pH 8.0, measured pH 7.9): 500 µg/mL (≈ 1050 µM) | solubility at 48 h ([2]; boric acid buffer pH 10.0, pH 8.7, aqueous buffer, vehicle Buffer/Boric acid pH 10.0, measured pH 8.7): 19100 µg/mL (≈ 40200 µM) | solubility at 48 h ([2]; citric acid buffer pH 2.0, pH 2.3, aqueous buffer, vehicle Buffer/Citric acid pH 2.0, measured pH 2.3): 3950 µg/mL (≈ 8300 µM) | solubility at 48 h ([2]; citric acid buffer pH 4.0, pH 4, aqueous buffer, vehicle Buffer/Citric acid pH 4.0, measured pH 4.0): 80 µg/mL (≈ 168 µM) | solubility at 48 h ([2]; citric acid buffer pH 6.0, pH 6, aqueous buffer, vehicle Buffer/Citric acid pH 6.0, measured pH 6.0): 60 µg/mL (≈ 126 µM) | Concentration (solubility) ([2]; vehicle Buffer/Boric acid pH 10.0, measured pH 8.7): 19900 µg/mL | solubility at 48 h ([2]; water, pH 7.3, water, vehicle H2O, pH 7.3, stirred 48 hours): 150 µg/mL (≈ 315 µM)
